The values below come from patent publication US5583248A, “Amino acid derivatives having antiviral activity” (Hoffmann-La Roche Inc., priority 1991, dated 1996).

Molecules are shown by their SMILES.

In one experiment the target is T1, HIV protease (Human immunodeficiency virus type 1 group M subtype B, UniProt P04585).
T1 construct: HIV protease was expressed in E. coli; made in house; host or cells: E. coli
Kind of experiment: in vitro inhibition of HIV protease. In kind it is biochemical. Conditions: substrate succinyl-Val-Ser-Gln-Asn-Phe-Pro-Ile isobutylamide; citrate buffer pH5.5; 37° C.; 50% inhibition; read-out: HIV protease inhibition I50. As for the experimental part: HIV protease was expressed in E. coli and partially purified from soluble extracts of the bacterium by ammonium sulphate fractionation (0-30%). Protease activity was assayed using the protected heptapeptide succinyl-Val-Ser-Gln-Asn-Phe-Pro-Ile isobutylamide as the substrate. Cleavage of the substrate was quantified by measuring the production of H-Pro-Ile isobutyl-amide by the spectrophotometric assay of N-terminal proline,
1.25 mM of substrate were dissolved in 125 mM of citrate buffer (pH5.5) containing 0.125 mg/ml of Tween 20. […] of a solution of various concentrations of the test compound (dissolved in methanol or dimethyl sulphoxide and diluted with water containing 0.1% Tween 20) and […] of protease were added to […] of the above buffered substrate. Digestion was carried out at 37° C. for a fixed period of time and was terminated by the addition of 1 ml of colour reagent [30 mg/ml of isatin and 1.5 mg/ml of 2-(4-chlorobenzoyl)benzoic acid in 10% acetone in ethanol (vol./vol.)]. The solution was heated in a water bath and then the pigmented residues were re-dissolved in 1 ml of 1% pyrogallol in 33% water in acetone (wt./vol./vol.), The optical density of the solution was measured spectrophotometrically at 599 nm, The formation of H-Pro-Ile isobutylamide in the presence of the test compound was compared with controls and the concentration of test compound required to give 50% inhibition (I50) was determined by means of a graph plotted from the various concentrations of test compound used.

Experiment [1] concerns HTLV-III (strain RF) grown in C8166 cells. Nature of the experiment: in vitro antiviral activity (activity against HIV). The conditions noted are these: Human immunodeficiency virus 1, C8166, 72 h, read-out: Activity against HIV I50. In kind it is cell-based. As for the experimental part:
This assay uses HTLV-III (strain RF) grown in C8166 cells (a human CD4^+ T lymphoblastoid line) using RPM1 1640 medium with bicarbonate buffer, antibiotics and 10% foetal bovine serum.
A suspension of cells is infected with ten times the TCID50 of virus and adsorption is allowed to proceed for 90 minutes at 37° C. The cells are washed three times with medium. The test is carried out in 6 ml tissue culture tubes containing 2×10^5 infected cells in 1.5 ml of medium. Test compounds are dissolved in either aqueous medium or dimethyl sulphoxide, according to solubility, and a […] solution of the test compound is added. The cultures are incubated at 37° C. for 72 hours in a humidified atmosphere containing 5% carbon dioxide in air. The cultures are then centrifuged and an aliquot of the supernatant is solubilized with Nonidet P40 and subjected to an antigen capture assay which uses a primary antiserum with particular reactivity against the viral p24 antigen and a horseradish peroxidase detection system. Colour generation is measured spectrophotometrically and is plotted against the concentration of test compound. The concentration which produces 50% protection is determined (I50).

Turning to `CSC[C@H](NC(=O)OCc1ccccc1)C(=O)N[C@@H](Cc1ccccc1)[C@H](O)C[C@@H]1CCCC[C@H]1C(=O)NC(C)(C)C` [Compound D, 2(S)-[3(S)-[[N-(benzyloxycarbonyl)-S-methyl-L-cysteinyl]amino]-2(R)-hydroxy-4-phenylbutyl]-N-tert.butyl-1(R)-cyclohexanecarboxamide], at HIV protease, the IC50 came out at 1.3 nM.
For the compound `COC(=O)C[C@H](NC(=O)OCc1ccccc1)C(=O)N[C@@H](Cc1ccccc1)[C@H](O)C[C@@H]1CCCC[C@H]1C(=O)NC(C)(C)C` [Compound E, 2(S)-[3(S)-[[N-(benzyloxycarbonyl)-O-methyl-L-aspartyl]amino]-2(R)-hydroxy-4-phenylbutyl]-N-tert.butyl-1(R)-cyclohexanecarboxamide], the IC50 on HIV protease stood at 1.9 nM.
Consider `CC(C)(C)NC(=O)[C@@H]1CCCC[C@H]1C[C@@H](O)[C@H](Cc1ccccc1)NC(=O)[C@H](CC(N)=O)NC(=O)OCc1ccccc1` [Compound A, 2(S)-[3(S)-[[N-(benzyloxycarbonyl)-L-asparaginyl]amino]-2(R)-hydroxy-4-phenylbutyl]-N-tert.butyl-1(R)-cyclohexanecarboxamide], for which the IC50 was 2 nM on HIV protease and 46 nM in experiment [1].
In the case of `CC(C)(C)NC(=O)[C@@H]1CCCC[C@H]1C[C@@H](O)[C@H](Cc1ccccc1)NC(=O)[C@H](CC(N)=O)NC(=O)c1ccc2ccccc2n1` [Compound C, 2(S)-[3(S)-[[N-(2-quinolylcarbonyl)-L-asparaginyl]amino]-2(R)-hydroxy-4-phenylbutyl]-N-tert.butyl-1(R)-cyclohexanecarboxamide], the IC50 in experiment [1] was found to be 4 nM.
For `CC(C)(C)NC(=O)[C@@H]1CCCC[C@@H]1C[C@@H](O)[C@H](Cc1ccccc1)NC(=O)[C@H](CC(N)=O)NC(=O)OCc1ccccc1` [Compound B, 2(R)-[3(S)-[[N-(benzyloxycarbonyl)-L-asparaginyl]amino]-2(R)-hydroxy-4-phenylbutyl]-N-tert.butyl-1(R)-cyclohexanecarboxamide], the IC50 at HIV protease amounted to 57 nM; in experiment [1] it was 1000 nM.
For `CC(C)(C)NC(=O)[C@@H]1CCCC[C@H]1C[C@@H](O)[C@H](Cc1ccccc1)NC(=O)[C@H](CC#N)NC(=O)OCc1ccccc1` [Compound F, 2(S)-[3(S)-[[N-(benzyloxycarbonyl)-3-cyano-L-alanyl]amino]-2(R)-hydroxy-4-phenylbutyl]-N-tert.butyl-1(R)-cyclohexanecarboxamide], the IC50 at HIV protease turned out to be 2 nM.
